Among the data in patent US20250228239A1, “MOLECULES HAVING PESTICIDAL UTILITY, AND INTERMEDIATES, COMPOSITIONS, AND PROCESSES, RELATED THERETO” (priority 2024, published 2025) are YFM, pest or weed control and YFM rating values, retold here.

Common to all, as to type: in vivo
The test system of assay [1] is Yellow Fever Mosquito (Aedes aegypti, AEDSAE). The note with it: for YFM rating: Table ABC / ABC-DP rating. In outline:
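Compounds from DMSO master plates (4000 ppm stock) diluted in 90:10 water/acetone, then dispensed into six replicate plates and infested with ~1-day-old Aedes aegypti larvae in liver-powder water. Held covered at room temperature for 3 days; each well scored for larval mortality and graded on a rating scale.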

The subject of assay [2] is Cabbage Looper (Trichoplusia ni, TRIPNI). Briefly: Bioassays on Cabbage Looper (CL), 128-well diet tray assay. The conditions noted are these: Trichoplusia ni. In a few lines:
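Second-instar larvae (1–5 per well) placed on artificial diet surface-treated with 50 μg/cm^2 test molecule applied in 90:10 acetone-water and dried. Held at 25° C., 14:10 light-dark, for five to seven days. Percent mortality scored per well and averaged over eight wells.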

In assay [3] the test system is Beet Armyworm (Spodoptera exigua, LAPHEG). The experiment in a line: Bioassays on Beet Armyworm (BAW), 128-well diet tray assay. The note with it: Spodoptera exigua. In outline: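 One to five second-instar larvae per well on artificial diet surface-treated with 50 μg/cm^2 test molecule (applied in 90:10 acetone-water, dried), eight wells per compound. Trays held vented at 25° C., 14:10 light-dark for five to seven days; percent mortality averaged over the eight wells.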

Where [4] appears, read: Table ABC: Biological Results, species YFM.
Where [5] appears, read: Table ABC: Biological Results, species CL, read-out: CL.
The mark [6] stands for this setting: Table ABC: Biological Results, species BAW, read-out: BAW.
Setting [7] is: Yellow Fever Mosquito, rating class.
Setting [8] is: Cabbage Looper, rating class, read-out: CL.
Where [9] appears, read: Beet Armyworm, rating class, read-out: BAW.
[10] abbreviates: Cabbage Looper, Table ABC / ABC-DP rating, read-out: CL rating.
Setting [11] is: Beet Armyworm, Table ABC / ABC-DP rating, read-out: BAW rating.

Like-named read-outs stand apart in the source and are kept apart here.

Regarding `O=C(Nc1ccc(NC(=O)C(F)(F)F)c(Cl)c1)c1cc(NC(=O)[C@H]2[C@H](c3ccc(F)c(Cl)c3)C2(Cl)Cl)ccc1Cl` (relative stereo) [F1384, trans-2-Chloro-N-(3-chloro-4-(2,2,2-trifluoroacetamido)phenyl)-5-(2,2-dichloro-3-(3-chloro-4-fluorophenyl)cyclopropane-1-carboxamido)benzamide], the YFM entry in assay [1] (setting [4]) is on record as “A (80–100)”. The pest or weed control at 50 µg/cm2 in assay [2] (setting [5]) and in assay [3] (setting [6]) was 50 to 100% each time.

For `Nc1c(F)ccc(NC(=O)c2cc(NC(=O)[C@H]3[C@H](c4ccc(Br)cc4)C3(Cl)Cl)ccc2Cl)c1F` (relative stereo) [F1591, trans-N-(3-Amino-2,4-difluorophenyl)-5-(3-(4-bromophenyl)-2,2-dichlorocyclopropane-1-carboxamido)-2-chlorobenzamide], the YFM entry in assay [1] (setting [7]) is given as “A (80–100)”. The pest or weed control at 50 µg/cm2 in assay [2] (setting [8]) and in assay [3] (setting [9]) was 50 to 100% in each case.

As to `CC(=O)Nc1ccc(NC(=O)c2cc(NC(=O)[C@H]3[C@H](c4ccc(F)c(Cl)c4)C3(Cl)Cl)cc(C(F)(F)F)c2Cl)cc1` (relative stereo) [F1216, trans-N-(4-Acetamidophenyl)-2-chloro-5-(2,2-dichloro-3-(3-chloro-4-fluorophenyl)cyclopropane-1-carboxamido)-3-(trifluoromethyl)benzamide], the YFM result in assay [1] (setting [4]) was “A (80–100)”. Besides, the pest or weed control at 50 µg/cm2 in assay [2] (setting [5]) and in assay [3] (setting [6]) was 50 to 100% throughout.

Consider `O=C(Nc1cc(NC(=O)C(F)F)c(F)cc1F)c1cc(NC(=O)[C@H]2[C@H](c3cc(Cl)c(Cl)c(Cl)c3)C2(Cl)Cl)ccc1F` [F1552, 5-((1R,3R)-2,2-Dichloro-3-(3,4,5-trichlorophenyl)cyclopropane-1-carboxamido)-N-(5-(2,2-difluoroacetamido)-2,4-difluorophenyl)-2-fluorobenzamide], for which the YFM entry in assay [1] (setting [7]) was “A (80–100)”. Moreover, the pest or weed control at 50 µg/cm2 in assay [2] (setting [8]) and in assay [3] (setting [9]) was 50 to 100% in each case.

For `O=C(Nc1ccc(NC(=O)C(F)(F)F)c(C(F)(F)F)c1)c1cc(NC(=O)[C@H]2[C@H](c3ccc(F)c(Cl)c3)C2(Cl)Cl)ccc1Cl` (relative stereo) [F1393, trans-2-Chloro-5-(2,2-dichloro-3-(3-chloro-4-fluorophenyl)cyclopropane-1-carboxamido)-N-(4-(2,2,2-trifluoroacetamido)-3-(trifluoromethyl)phenyl)benzamide], the YFM entry in assay [1] (setting [7]) was “A (80–100)”. Further, the pest or weed control at 50 µg/cm2 in assay [2] (setting [8]) and in assay [3] (setting [9]) was 50 to 100% throughout.

With `O=C(NNC(=O)C(F)(F)F)c1cc(NC(=O)[C@H]2[C@H](c3cc(Cl)cc(Cl)c3)C2(Cl)Cl)ccc1Cl` (relative stereo) [F2515, trans-2,2-Dichloro-N-(4-chloro-3-(2-(2,2,2-trifluoroacetyl)hydrazine-1-carbonyl)phenyl)-3-(3,5-dichlorophenyl)cyclopropane-1-carboxamide], the YFM rating entry in assay [1] (Yellow Fever Mosquito) is given as “A (80–100)”. Further, the pest or weed control at 50 µg/cm2 in assay [2] (setting [10]) and in assay [3] (setting [11]) was 50 to 100% each time.

Turning to `O=C(Nc1ccc(F)c(NC(=O)C(F)F)c1F)c1cc(NC(=O)[C@H]2[C@H](c3ccc(F)c(C(F)(F)F)c3)C2(Cl)Cl)c(F)cc1Cl` [F1729, 2-Chloro-5-((1R,3R)-2,2-dichloro-3-(4-fluoro-3-(trifluoromethyl)phenyl)cyclopropane-1-carboxamido)-N-(3-(2,2-difluoroacetamido)-2,4-difluorophenyl)-4-fluorobenzamide], the YFM entry in assay [1] (setting [7]) is reported as “A (80–100)”. The pest or weed control at 50 µg/cm2 in assay [2] (setting [8]) and in assay [3] (setting [9]) was 50 to 100% in each case.

Regarding `C#CCCCC(=O)Nc1c(F)ccc(NC(=O)c2cc(NC(=O)[C@H]3[C@H](c4ccc(F)c(C(F)(F)F)c4)C3(Cl)Cl)ccc2Cl)c1F` [F1857], the YFM rating result in assay [1] (Yellow Fever Mosquito) is “A (80–100)”. The pest or weed control at 50 µg/cm2 in assay [2] (setting [10]) and in assay [3] (setting [11]) was 50 to 100% each time.

As for `Nc1c(F)ccc(NC(=O)c2cc(NC(=O)[C@H]3[C@@H](c4cc(Cl)c(F)c(Cl)c4)C3(Cl)Cl)ccc2Cl)c1F` (relative stereo) [F1182, cis-N-(3-Amino-2,4-difluorophenyl)-2-chloro-5-(2,2-dichloro-3-(3,5-dichloro-4-fluorophenyl)cyclopropane-1-carboxamido)benzamide], the YFM entry in assay [1] (setting [4]) was “A (80–100)”. In addition, the pest or weed control at 50 µg/cm2 in assay [2] (setting [5]) and in assay [3] (setting [6]) was 50 to 100% each time.

With `O=C(Nc1ccc(F)c(NC(=O)C(Cl)Cl)c1F)c1cc(NC(=O)[C@H]2[C@H](c3ccc(Cl)c(Cl)c3)C2(Cl)Cl)ccc1Cl` [F1252, 2-Chloro-5-((1R,3R)-2,2-dichloro-3-(3,4-dichlorophenyl)cyclopropane-1-carboxamido)-N-(3-(2,2-dichloroacetamido)-2,4-difluorophenyl)benzamide], in assay [1] (setting [4]), the YFM entry was “A (80–100)”. In addition, the pest or weed control at 50 µg/cm2 in assay [2] (setting [5]) and in assay [3] (setting [6]) was 50 to 100% in each case.

Turning to `O=C(Nc1ccc(F)c(NC(=O)C(F)(F)F)c1)c1cc(NC(=O)[C@H]2[C@H](c3ccc(Cl)c(Cl)c3)C2(Cl)Cl)ccc1Cl` [F1812, 2-Chloro-5-((1R,3R)-2,2-dichloro-3-(3,4-dichlorophenyl)cyclopropane-1-carboxamido)-N-(4-fluoro-3-(2,2,2-trifluoroacetamido)phenyl)benzamide], in assay [1] (Yellow Fever Mosquito), the YFM rating entry is reported as “B (More than 0 – Less than 80)”. Also, the pest or weed control at 50 µg/cm2 in assay [2] (setting [10]) and in assay [3] (setting [11]) was 50 to 100% in each case.

For `O=C(Nc1c(F)ccc(NC(=O)c2cc(NC(=O)[C@H]3[C@H](c4ccc(Cl)c(Cl)c4)C3(Cl)Cl)ccc2Cl)c1F)c1ccco1` [F1416, N-(3-(2-Chloro-5-((1R,3R)-2,2-dichloro-3-(3,4-dichlorophenyl)cyclopropane-1-carboxamido)benzamido)-2,6-difluorophenyl)furan-2-carboxamide], in assay [1] (setting [7]), the YFM entry is “A (80–100)”. In addition, the pest or weed control at 50 µg/cm2 in assay [2] (setting [8]) and in assay [3] (setting [9]) was 50 to 100% throughout.

Regarding `Nc1c(F)ccc(NC(=O)c2cc(NC(=O)[C@H]3[C@H](c4cc(Cl)c(Cl)c(C(F)(F)F)c4)C3(Cl)Cl)ccc2Cl)c1F` (relative stereo) [F1149, trans-N-(3-Amino-2,4-difluorophenyl)-2-chloro-5-(2,2-dichloro-3-(3,4-dichloro-5-(trifluoromethyl)phenyl)cyclopropane-1-carboxamido)benzamide], the YFM result in assay [1] (setting [4]) was “A (80–100)”. Moreover, the pest or weed control at 50 µg/cm2 in assay [2] (setting [5]) and in assay [3] (setting [6]) was 50 to 100% each time.

On to `O=C(NCCNC(=O)C(F)(F)F)c1cc(NC(=O)[C@H]2[C@H](c3cc(Cl)cc(Cl)c3)C2(Cl)Cl)ccc1Cl` (relative stereo) [F2066, trans-2-Chloro-5-(2,2-dichloro-3-(3,5-dichlorophenyl)cyclopropane-1-carboxamido)-N-(2-(2,2,2-trifluoroacetamido)ethyl)benzamide], for which the YFM rating entry in assay [1] (Yellow Fever Mosquito) is “A (80–100)”. The pest or weed control at 50 µg/cm2 in assay [2] (setting [10]) and in assay [3] (setting [11]) was 50 to 100% in each case.
